# Assay results published in US20150231236A1, “METHODS FOR TREATING PATIENTS WITH HYPERCHOLESTEROLEMIA THAT IS NOT ADEQUATELY CONTROLLED BY MODERATE-DOSE STATIN THERAPY” (Regeneron Pharmaceuticals, Inc., priority 2014, published 2015).
# Assays:
# [1] = as reported elsewhere; cited from earlier work
# [2] = tested on: patients with hypercholesterolemia at high CV risk not adequately controlled with rosuvastatin (10 mg or 20 mg); assay: Example 3: randomized, double-blind trial, lipid efficacy of mAb316P add-on to rosuvastatin vs EZE add-on or rosuvastatin dose doubling; assay type: in vivo, human; conditions: for Proportion of Patients Reaching LDL-C goal (%) / LDL-C W24 % change from baseline, LS mean (SE): week 24; for Proportion of Patients Reaching LDL-C goal (%): LDL-C <70 mg/dL very high risk or <100 mg/dL high risk; for LDL-C W24 % change from baseline, LS mean (SE): ITT population, treatment arm as labelled
# Protocol: The present study was a randomized, double-blind, active-comparator, parallel-group study in patients at high CV risk with non-FH or heFH who are not adequately controlled with rosuvastatin (10 mg or 20 mg) with or without other lipid-modifying therapy (LMT) (excluding EZE). The study design is illustrated in FIG. 2. Patients who entered the study were taking either rosuvastatin 10 mg or rosuvastatin 20 mg. The former patients were randomized to 1 of 3 treatment arms (arms 1 to 3); the latter patients were randomized to 1 of 3 treatment arms (arms 4 to 6). The treatment arms are as follows:
# (B) a double-blind treatment period of 24 weeks. […] The patient/caregiver administered subsequent injections outside of the clinic according to the dosing schedule. […] The last dose of daily oral study drugs was administered at week 24.
# The first injection of study drug was administered at the clinical site, as soon as possible after the patient was randomized into the study. The patient was monitored at the clinical site for at least 30 minutes following the first injection. The patient/caregiver administered subsequent injections outside of the clinic, according to the dosing schedule.
# The primary efficacy endpoint was the percent change in calculated LDL-C from baseline to week 24, which is defined as: 100× (calculated LDL-C value at week 24−calculated LDL-C value at baseline)/calculated LDL-C value at baseline. The baseline calculated LDL-C value was the last LDL-C level obtained before the first double-blind study drug injection. The calculated LDL-C at week 24 was the LDL-C level obtained within the week 24 analysis window and during the main efficacy period. The main efficacy period is defined as the time from the first double-blind study drug injection up to 21 days after the last double-blind study drug injection or up to the upper limit of the week 24 analysis window, whichever comes first.
# Total-C, HDL-C, TG, ApoB, ApoA-1, and Lp(a) were directly measured by a central laboratory. LDL-C was calculated using the Friedewald formula. […] Non-HDL-C was calculated by subtracting HDL-C from the total-C. Ratio ApoB/ApoA-1 was calculated.
# For clarification, the ITT analysis is defined for patients in the ITT population and includes all endpoint assessments in an analysis window, regardless of study treatment dosing status (i.e. includes post-treatment assessments). The on-treatment analysis is defined for patients in the mITT population and includes all endpoint assessments from the first double-blind study drug (capsule or injection, whichever comes first) up to 21 days after the last double-blind study drug injection or 3 days after the last capsule intake, whichever comes first (i.e. includes assessments in the efficacy treatment period).
# [3] = Week 4, baseline rosuvastatin 10 mg
# [4] = Week 4, baseline rosuvastatin 20 mg
# [5] = Week 8, baseline rosuvastatin 10 mg
# [6] = Week 8, baseline rosuvastatin 20 mg
# [7] = Week 12, baseline rosuvastatin 10 mg
# [8] = Week 12, baseline rosuvastatin 20 mg
# [9] = Week 16, baseline rosuvastatin 10 mg
# [10] = Week 16, baseline rosuvastatin 20 mg
# [11] = Week 24, baseline rosuvastatin 10 mg
# [12] = Week 24, baseline rosuvastatin 20 mg
smiles,measurement,setting,value
"CC(C)c1nc(N(C)S(C)(=O)=O)nc(-c2ccc(F)cc2)c1/C=C/[C@@H](O)C[C@@H](O)CC(=O)O [rosuvastatin, reference compound]",reduction in LDL-C levels when switching from atorvastatin 40 mg per day to rosuvastatin 40 mg per day,[1],~8%
same,Proportion of Patients Reaching LDL-C goal (%),[2]; Baseline Rosuvastatin 10 mg,45.0%
same,Proportion of Patients Reaching LDL-C goal (%),[2]; Baseline Rosuvastatin 20 mg,40.1%
same,Calculated LDL-C LS mean (SE) Value,"[2]; Baseline, baseline rosuvastatin 10 mg",105.9 (5.2) mg/dL
same,Calculated LDL-C LS mean (SE) Value,"[2]; Baseline, baseline rosuvastatin 20 mg",113.7 (6.0) mg/dL
same,"LDL-C W24 % change from baseline, LS mean (SE)",[2]; listed as RSV 20,−16.3%
same,"LDL-C W24 % change from baseline, LS mean (SE)",[2]; listed as RSV 40,−15.9%
same,Calculated LDL-C LS mean (SE) Value,[2]; [3],89.1 (3.6) mg/dL
same,"Calculated LDL-C LS mean (SE), % Change from Baseline",[2]; [3],−13.1 (3.2) %
same,"Calculated LDL-C LS mean (SE), Change from Baseline",[2]; [3],−16.2 (3.6)
same,Calculated LDL-C LS mean (SE) Value,[2]; [4],92.0 (3.4) mg/dL
same,"Calculated LDL-C LS mean (SE), % Change from Baseline",[2]; [4],−20.0 (5.3) %
same,"Calculated LDL-C LS mean (SE), Change from Baseline",[2]; [4],−25.1 (3.4)
same,Calculated LDL-C LS mean (SE) Value,[2]; [5],85.4 (4.3) mg/dL
same,"Calculated LDL-C LS mean (SE), % Change from Baseline",[2]; [5],−17.0 (3.8) %
same,"Calculated LDL-C LS mean (SE), Change from Baseline",[2]; [5],−19.9 (4.3)
same,Calculated LDL-C LS mean (SE) Value,[2]; [6],91.9 (4.3) mg/dL
same,"Calculated LDL-C LS mean (SE), % Change from Baseline",[2]; [6],−21.2 (5.7) %
same,"Calculated LDL-C LS mean (SE), Change from Baseline",[2]; [6],−25.2 (4.3)
same,Calculated LDL-C LS mean (SE) Value,[2]; [7],85.7 (4.1) mg/dL
same,"Calculated LDL-C LS mean (SE), % Change from Baseline",[2]; [7],−17.1 (4.1) %
same,"Calculated LDL-C LS mean (SE), Change from Baseline",[2]; [7],−19.6 (4.1)
same,Calculated LDL-C LS mean (SE) Value,[2]; [8],90.4 (4.3) mg/dL
same,"Calculated LDL-C LS mean (SE), % Change from Baseline",[2]; [8],−22.1 (5.3) %
same,"Calculated LDL-C LS mean (SE), Change from Baseline",[2]; [8],−26.6 (4.3)
same,Calculated LDL-C LS mean (SE) Value,[2]; [9],83.6 (4.7) mg/dL
same,"Calculated LDL-C LS mean (SE), % Change from Baseline",[2]; [9],−19.3 (4.8) %
same,"Calculated LDL-C LS mean (SE), Change from Baseline",[2]; [9],−21.6 (4.7)
same,Calculated LDL-C LS mean (SE) Value,[2]; [10],93.8 (4.8) mg/dL
same,"Calculated LDL-C LS mean (SE), % Change from Baseline",[2]; [10],−18.5 (6.3) %
same,"Calculated LDL-C LS mean (SE), Change from Baseline",[2]; [10],−23.3 (4.8)
same,Calculated LDL-C LS mean (SE) Value,[2]; [11],85.4 (4.3) mg/dL
same,"Calculated LDL-C LS mean (SE), % Change from Baseline",[2]; [11],−16.3 (4.1) %
same,"Calculated LDL-C LS mean (SE), Change from Baseline",[2]; [11],−19.9 (4.3)
same,Calculated LDL-C LS mean (SE) Value,[2]; [12],95.5 (5.7) mg/dL
same,"Calculated LDL-C LS mean (SE), % Change from Baseline",[2]; [12],−15.9 (7.1) %
same,"Calculated LDL-C LS mean (SE), Change from Baseline",[2]; [12],−21.5 (5.7)
same,proportion of patients who reached LDL-C level of <70 mg/dL (1.81 mmol/L) at Week 24,[2]; baseline rosuvastatin 10 mg regimen,31.3%
same,proportion of patients who reached LDL-C level of <70 mg/dL (1.81 mmol/L) at Week 24,[2]; baseline rosuvastatin 20 mg regimen,29.9%
